Experiments:
Assay type in all cases: cell-based
[1] = tested on: HL-60 cells (human acute myeloid leukemia cells); experiment: alamarBlue proliferation assay with HL-60 cells; details: 120 h, 5 days, relative to DMSO baseline level of 1.0, read-out: AVEw, weighted arithmetic mean of normalized fluorescence intensity values (Activity Range), HL-60 proliferation
In short: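 HL-60 cells (1000/well, RPMI 1640 + 10% FBS) exposed to compound in 0.1% DMSO for 5 days, then alamarBlue fluorescence read (ex 560/em 590 nm). Signals normalized to six DMSO wells per plate (baseline 1.0); outliers removed by Peirce/Chauvenet; weighted mean with combined SD; inhibitor criterion judged at 20 μM reference concentration.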

[2] = tested on: TT cells (human medullary thyroid carcinoma cells); experiment: alamarBlue proliferation assay with TT cells; details: for activity at 40 µM: Homo sapiens, 120 h, relative to DMSO basis level 1.0, read-out: weighted arithmetic mean (AVEw) of normalized fluorescence intensity, activity range
Procedure: The antiproliferative activities of compounds falling under formula I, formula II, formula III, formula IV and formula V were investigated on cells or cell lines originating from a disorder of the myeloid cell compartment, the neuroendocrine system, the cervix, and the mucosal epithelium, as well as from the skin epithelium. To this end, HL-60 cells, TT cells, HeLa cells, CAL-27 cells and human primary epidermal keratinocytes (HPEK) were seeded into 96-well plates suitable for fluorescence assays (CORNING #3598) at following initial cell numbers: 1000 cells per well for HL-60; 9000 cells per well for TT; 2000 cells per well for HeLa, 2000 cells per well for CAL-27, 2000 cells per well for HPEK. The cells were treated with compounds at indicated final concentrations (diluted from the 1000× stock-solutions in DMSO to a final DMSO concentration of 0.1% v/v) or with the empty carrier DMSO at 0.1% v/v as control for 5 days. At day 5 after starting the treatments the cells were subjected to the alamarBlue® Proliferation Assay (Bio-Rad Serotec GmbH, BUF012B) according to the protocol of the manufacturer. The readout was taken with a multi-well plate-reader in the fluorescence mode with applying a filter for excitation at 560 nm (band width 10 nm) and for emission at 590 nm (band width 10 nm). Resveratrol (RES) treatment was included as control for growth inhibition.
The assays were performed in duplicate or more replicates of independent single experiments each containing a six-fold replicate for every condition. For every individual plate, the measured fluorescence intensity values of the conditions with compound treatment were normalized against the corresponding equally weighted arithmetic mean of the fluorescence intensity values of the six DMSO treated control wells in order to obtain the relative values to a baseline level of 1.0. The statistical calculations were performed in analogy to the luciferase assay as described above. To this end, two independent outlier analyses were performed according to the methods by Peirce and Chauvenet (Ross, Journal of Engineering Technology 2003, 1-12). Outliers confirmed by at least one of the methods were excluded from the calculations but not more than one value out of six per compound within a single experiment. The weighted arithmetic mean AVEw for each compound was calculated from the normalized values over all independent replicates of the single experiments comprising the six replicates each. The corresponding standard deviation for the weighted arithmetic mean was calculated according to the method described by Bronstein et al. (Bronstein, Semendjajew, Musiol, Mühlig, Taschenbuch der Mathematik, 5th edition 2001 (German), publisher: Verlag Harri Deutsch, Frankfurt am Main and Thun) and was combined with the Gauß′ error propagation associated with the performed calculation for the normalization. The resulting standard deviation is herein referred to as “combined standard deviation”.
TT cells were cultivated according to the protocol of the provider in F-12K medium (Fisherscientific, #11580556, or ATCC, #ATCC-30-2004) containing 10% fetal bovine serum (Fisherscientific, #15517589).
A compound is considered as a growth inhibitor of TT cells, if—at a reference concentration of 40 μM—the weighted arithmetic mean of the normalized fluorescence intensity values after addition of the corresponding combined standard deviation amounts to 0.9 or lower, in particular to 0.8 or lower, 0.7 or lower, 0.6 or lower, 0.4 or lower, and 0.2 or lower, relative to the overall basis level of 1.0. The overall basis level was calculated as the weighted arithmetic mean of all normalized values from the DMSO control measurements in analogy to the calculations performed for the test-compounds. The corresponding combined standard deviation for the DMSO values amounts to less than 1·10^−2.

[3] = tested on: BHY cells (human oral squamous cell carcinoma cells); experiment: alamarBlue proliferation assay with BHY cells; details: 72 h, 3 days treatment, single assay (preliminary), relative to DMSO basis level 1.0, read-out: equally weighted arithmetic mean (AVE) of six normalized fluorescence intensity values, activity range (RES: AVEw)
Procedure: Compounds were tested on BHY cells using the alamarBlue® proliferation assay in analogy to the above described method with seeding the cells at an initial number of 4000 cells per 96-well and a duration of treatment with compounds for 3 days.
BHY cells were cultivated according to the protocol of the provider (but at 5% instead of 10% CO2) in DMEM medium (Fisherscientific, #11584456) containing 10% fetal bovine serum (Fisherscientific, #15517589).
A compound is considered as a growth inhibitor of BHY cells, if—at a reference concentration of 40 μM—the equally weighted arithmetic mean (AVE) of the six normalized fluorescence intensity values after addition of the corresponding standard deviation amounts to 0.9 or lower, in particular to 0.8 or lower, 0.7 or lower, 0.6 or lower, 0.4 or lower, and 0.2 or lower, relative to the overall basis level of 1.0. The overall basis level was calculated as the weighted arithmetic mean (AVEw) of all normalized values from the DMSO control measurements. The corresponding combined standard deviation for the DMSO values amounts to less than 1·10^−2. The corresponding standard deviations for the tested compounds were calculated including the Gauß′ error propagation associated with the performed calculation for the normalization. The weighted arithmetic mean (AVEw) and the combined standard deviation for RES was calculated in analogy to DMSO. Outlier analyses were performed as described above.

NC(=O)c1ccc(Oc2ccc(C3CC4CCC3C4)cc2)cc1 (racemic) [Compound 159, (±)-4-(4-(Bicyclo[2.2.1]heptan-2-yl)phenoxy)benzamide]
activity at 20 µM [1]: 40 to 60%
activity at 40 µM [2]: 80 to 90%

CCCc1ccc(Oc2ccc(C(=O)NO)cc2)cc1 [Compound 166, N-hydroxy-4-(4-propylphenoxy)benzamide]
activity at 20 µM [1]: 0 to 20%
activity at 40 µM [2]: 20 to 40%

CCC(C)(C)c1ccc(Oc2ccc(C(=O)NO)cc2)cc1 [Compound 171, N-hydroxy-4-(4-(tert-pentyl)phenoxy)benzamide]
activity at 20 µM [1]: 0 to 20%
activity at 40 µM [3]: 40 to 60%
activity at 40 µM [2]: 20 to 40%

O=C(NO)c1ccc(Oc2ccc(C3CCCCC3)cc2)cc1 [Compound 182, 4-(4-cyclohexylphenoxy)-N-hydroxybenzamide]
activity at 20 µM [1]: 0 to 20%
activity at 40 µM [3]: 20 to 40%
activity at 40 µM [2]: 20 to 40%

O=C(NO)c1ccc(Oc2ccc(C34CC5CC(CC(C5)C3)C4)cc2)cc1 [Compound 186, 4-(4-(Adamantan-1-yl)phenoxy)-N-hydroxybenzamide]
activity at 20 µM [1]: 0 to 20%
activity at 40 µM [3]: 20 to 40%
activity at 40 µM [2]: 20 to 40%

CC(C)c1ccc(Oc2ccc(C(=O)NO)cn2)cc1 [Compound 272, N-hydroxy-6-(4-isopropylphenoxy)nicotinamide]
activity at 20 µM [1]: 0 to 20%
activity at 40 µM [3]: 20 to 40%
activity at 40 µM [2]: 0 to 20%

CCC(C)(C)c1ccc(Oc2ccc(C(=O)NO)cn2)cc1 [Compound 273, N-hydroxy-6-(4-(tert-pentyl)phenoxy)nicotinamide]
activity at 20 µM [1]: 0 to 20%

O=C(NO)c1ccc(Oc2ccc(C3CCCCC3)cc2)nc1 [Compound 284, 6-(4-Cyclohexylphenoxy)-N-hydroxynicotinamide]
activity at 20 µM [1]: 0 to 20%
activity at 40 µM [3]: 20 to 40%
activity at 40 µM [2]: 0 to 20%

O=C(NO)c1ccc(Oc2ccc(C3CC4CCC3CC4)cc2)nc1 (centres unmarked) [Compound 287, 6-(4-((1s,4s)-bicyclo[2.2.2]octan-2-yl)phenoxy)-N-hydroxynicotinamide]
activity at 20 µM [1]: 0 to 20%
activity at 40 µM [2]: 20 to 40%

O=C(NO)c1ccc(Oc2ccc(C34CC5CC(CC(C5)C3)C4)cc2)nc1 [Compound 288, 6-(4-((3r,5r,7r)-adamantan-1-yl)phenoxy)-N-hydroxynicotinamide]
activity at 20 µM [1]: 0 to 20%
activity at 40 µM [3]: 20 to 40%
activity at 40 µM [2]: 0 to 20%

CNC(=O)c1ccc(Oc2ccc(C(F)(F)F)cc2)nc1 [Compound 300, N-methyl-6-(4-(trifluoromethyl)phenoxy)nicotinamide]
activity at 20 µM [1]: 80 to 90%

CN(C)C(=O)c1ccc(Oc2ccc(C3CCCCC3)cc2)nc1 [Compound 334, 6-(4-cyclohexylphenoxy)-N,N-dimethylnicotinamide]
activity at 20 µM [1]: 60 to 70%
activity at 40 µM [2]: 80 to 90%

O=C(NO)c1ccc(Oc2ccc(C34CC5CC(CC(C5)C3)C4)cc2)c(F)c1 [Compound 544, 4-(4-(Adamantan-1-yl)phenoxy)-3-fluoro-N-hydroxybenzamide]
activity at 20 µM [1]: 0 to 20%
activity at 40 µM [3]: 20 to 40%
activity at 40 µM [2]: 20 to 40%

O=C(NO)c1cnc(Oc2ccc(C3CCCCC3)cc2)c(F)c1 [Compound 644, 6-(4-Cyclohexylphenoxy)-5-fluoro-N-hydroxynicotinamide]
activity at 20 µM [1]: 0 to 20%
activity at 40 µM [3]: 60 to 70%
activity at 40 µM [2]: 20 to 40%

Oc1ccc(C=Cc2cc(O)cc(O)c2)cc1 [RES, resveratrol, reference compound]
activity at 20 µM [1]: 40%
activity at 40 µM [3]: 60%
activity at 40 µM [2]: 80%
weighted arithmetic mean (AVEw) of normalized fluorescence intensity ([2]; control RES at 20 μM, relative to DMSO basis level 1.0): 0.9 ± 0.0
